Test results from patent US20200263231A1, “Fluorogenic dyes for high sensitivity DNA detection” (LIFE TECHNOLOGIES CORPORATION, priority 2016, published 2020).

How the values were obtained:
calf thymus DNA = test: Fluorescence emission and enhancement of compounds bound to calf thymus DNA; format: binding; settings: 0.8 μM compound with 500 ng/ml calf thymus DNA in TE buffer; for Emission Max: excited at 488 nm; for Fluorescence Enhancement: emission area 500-715 nm compared to compound 1, defined as 1000-fold
Method: Compounds 1-65 were prepared and their fluorescence absorption and emission characteristics were measured. Intrinsic fluorescence of the compounds only (without DNA) was negligible. Emission spectra for the compounds bound to dsDNA were obtained by incubating 0.8 μM compound with 500 ng/ml calf thymus DNA in TE buffer (10 mM Tris-HCl, pH 7.5, 1 mM EDTA) in a final volume of 3 ml. Measurements were made using PerkinElmer LS 55 (F-11) Fluorescence spectrometer. Samples were excited at 488 nm and fluorescence emission was measured with emission slit widths of 2.5 nm. Absorption maxima were determined according to standard techniques.
Fluorescence enhancement measurements of the compounds were obtained by incubating 0.8 μM compound with 500 ng/ml calf thymus DNA with compounds at a final concentration of 0.8 μM in TE buffer. Compound 1 was used as an internal standard to control for variability (e.g., in excitation light intensity). The area-under-curve of fluorescence emission spectra from 500 nm to 715 nm was calculated, and compared to that of compound 1, which was defined as having 1000-fold fluorescence enhancement relative to fluorescence of the compound alone.

[1] = UV/VIS absorption spectra; format: physicochemical; settings: 10 μM compound in 50 mM potassium phosphate buffer (pH 7.0)
Method: The UV/VIS absorption spectra were obtained with 10 μM compound solution in 50 mM potassium phosphate buffer (pH 7.0) in a final volume of 3 mL. Measurements were carried out using a Lambda 245 spectrophotometer from Perkin Elmer.

| SMILES | Emission Max (calf thymus DNA) [nm] | Absorbance Max [1] [nm] | Fluorescence Enhancement (calf thymus DNA) [fold] |
| --- | --- | --- | --- |
| CCCN(CCCN(C)C)C1=C/C(=C/c2sc3ccccc3[n+]2C)c2ccccc2N1c1ccccc1 [Compound 1, reference compound] | 523 | 500 | 1000 |
| CCCN(CCC[N+](C)(C)CCC)C1=C/C(=C/c2sc3ccccc3[n+]2C)c2ccccc2N1c1ccccc1.[I-].[I-] [Compound 4] | 524 | 501 | 925 |
| CCCN(CCC[N+](C)(C)Cc1ccccc1)C1=C/C(=C\c2sc3ccccc3[n+]2C)c2ccccc2N1c1ccccc1.[Br-].[Cl-] [Compound 6] | 523 | 502 | 979 |
| CCCN(CCC[N+](C)(C)Cc1cccc(OC)c1)C1=C/C(=C/c2sc3ccccc3[n+]2C)c2ccccc2N1c1ccccc1.[Br-].[Cl-] [Compound 7] | 522 | 502 | 978 |
| CCCCN(CCC[N+](C)(C)CCC)C1=C/C(=C/c2sc3ccccc3[n+]2C)c2ccccc2N1c1ccccc1.[I-].[I-] [Compound 11] | 524 | 496 | 903 |
| CCCCN(CCC[N+](C)(C)CCO)C1=C/C(=C/c2sc3ccccc3[n+]2C)c2ccccc2N1c1ccccc1.[I-].[I-] [Compound 12] | 525 | 496 | 937 |
| CCCCN(CCC[N+](C)(C)Cc1ccccc1)C1=C/C(=C/c2sc3ccccc3[n+]2C)c2ccccc2N1c1ccccc1.[Br-].[I-] [Compound 13] | 523 | 496 | 922 |
| CCCCN(CCC[N+](C)(C)Cc1cccc(OC)c1)C1=C/C(=C/c2sc3ccccc3[n+]2C)c2ccccc2N1c1ccccc1.[Br-].[I-] [Compound 14] | 526 | 497 | 907 |
| CCN(CCC[N+](C)(C)Cc1ccccc1)C1=C/C(=C/c2sc3ccccc3[n+]2C)c2ccccc2N1c1ccccc1.[Br-].[I-] [Compound 19] | 524 | 497 | 884 |
| CCN(CCC[N+](C)(C)Cc1cccc(OC)c1)C1=C/C(=C/c2sc3ccccc3[n+]2C)c2ccccc2N1c1ccccc1.[Br-].[I-] [Compound 20] | 523 | 497 | 871 |
| CN(CCC[N+](C)(C)CCO)C1=C/C(=C/c2sc3ccccc3[n+]2C)c2ccccc2N1c1ccccc1.[I-].[I-] [Compound 25] | 523 | 497 | 640 |
| CN(CCC[N+](C)(C)Cc1ccccc1)C1=C/C(=C/c2sc3ccccc3[n+]2C)c2ccccc2N1c1ccccc1.[I-].[I-] [Compound 26] | 521 | 498 | 653 |
| COc1cccc(C[N+](C)(C)CCCN(C)C2=C/C(=C/c3sc4ccccc4[n+]3C)c3ccccc3N2c2ccccc2)c1.[Br-].[I-] [Compound 27] | 521 | 498 | 668 |

Now from value to molecule, other results behind:

| Emission Max (calf thymus DNA) [nm] | Absorbance Max [1] [nm] | SMILES | Fluorescence Enhancement (calf thymus DNA) [fold] |
| --- | --- | --- | --- |
| 524 | 501 | CCCN(CCC[N+](C)(C)CC)C1=C/C(=C/c2sc3ccccc3[n+]2C)c2ccccc2N1c1ccccc1.[Cl-].[I-] [Compound 3] | 997 |
| 523 | 501 | CCCN(CCC[N+](C)(C)CCO)C1=C/C(=C/c2sc3ccccc3[n+]2C)c2ccccc2N1c1ccccc1.[I-].[I-] [Compound 5] | 954 |
| 525 | 495 | CCCCN(CCCN(C)C)C1=C/C(=C/c2sc3ccccc3[n+]2C)c2ccccc2N1c1ccccc1.[I-] [Compound 8] | 946 |
| 525 | 496 | CCCCN(CCC[N+](C)(C)C)C1=C/C(=C/c2sc3ccccc3[n+]2C)c2ccccc2N1c1ccccc1.[I-].[I-] [Compound 9] | 908 |
| 526 | 496 | CCCCN(CCC[N+](C)(C)CC)C1=C/C(=C/c2sc3ccccc3[n+]2C)c2ccccc2N1c1ccccc1.[I-].[I-] [Compound 10] | 926 |
| 524 | 495 | CCN(CCCN(C)C)C1=C/C(=C/c2sc3ccccc3[n+]2C)c2ccccc2N1c1ccccc1.[I-] [Compound 15] | 864 |
| 523 | 496 | CCN(CCC[N+](C)(C)C)C1=C/C(=C/c2sc3ccccc3[n+]2C)c2ccccc2N1c1ccccc1.[I-].[I-] [Compound 16] | 863 |
| 523 | 496 | CCN(CCC[N+](C)(C)CC)C1=C/C(=C/c2sc3ccccc3[n+]2C)c2ccccc2N1c1ccccc1.[I-].[I-] [Compound 17] | 865 |
| 524 | 496 | CCN(CCC[N+](C)(C)CCO)C1=C/C(=C/c2sc3ccccc3[n+]2C)c2ccccc2N1c1ccccc1.[I-].[I-] [Compound 18] | 882 |
| 522 | 491 | CN(C)CCCN(C)C1=C/C(=C/c2sc3ccccc3[n+]2C)c2ccccc2N1c1ccccc1.[I-] [Compound 21] | 639 |
| 520 | 497 | CN(CCC[N+](C)(C)C)C1=C/C(=C/c2sc3ccccc3[n+]2C)c2ccccc2N1c1ccccc1.[I-].[I-] [Compound 22] | 639 |
| 524 | 498 | CC[N+](C)(C)CCCN(C)C1=C/C(=C/c2sc3ccccc3[n+]2C)c2ccccc2N1c1ccccc1.[I-].[I-] [Compound 23] | 622 |
| 522 | 497 | CCC[N+](C)(C)CCCN(C)C1=C/C(=C/c2sc3ccccc3[n+]2C)c2ccccc2N1c1ccccc1.[I-].[I-] [Compound 24] | 630 |
| 525 | 504 | CCN(CCN(C)C)C1=C/C(=C/c2sc3ccccc3[n+]2C)c2ccccc2N1c1ccccc1.[Cl-] [Compound 28] | 672 |
| 528 | 506 | CCN(CC[N+](C)(C)C)C1=C/C(=C/c2sc3ccccc3[n+]2C)c2ccccc2N1c1ccccc1.[Cl-].[I-] [Compound 29] | 648 |
| 526 | 506 | CCN(CC[N+](C)(C)CC)C1=C/C(=C/c2sc3ccccc3[n+]2C)c2ccccc2N1c1ccccc1.[Cl-].[I-] [Compound 30] | 638 |
| 527 | 506 | CCC[N+](C)(C)CCN(CC)C1=C/C(=C/c2sc3ccccc3[n+]2C)c2ccccc2N1c1ccccc1.[I-].[I-] [Compound 31] | 642 |
